Experimental data reported in patent publication US5605921A, “Triazole derivatives and salts thereof, and antifungal agent containing the same” (Toyama Chemical Co., Ltd., priority 1991, dated 1997).
≈ marks a conversion by molar mass, not a printed value.

How the values were obtained:
[1] = system: Aspergillus fumigatus IFO8868; test: Minimum inhibitory concentration (MIC) against Aspergillus fumigatus IFO8868; format: cell-based; conditions: IFO8868, 72 h, TC broth medium, 10^4 spores/ml, 37° C., 3 days
Procedure: (§1) MIC was determined in accordance with the method of M. S. Marriott [25th Interscience Conference on Antimicrobial Agents and Chemotherapy, p. 243 (1985)].
(§2) Candida albicans ON28 was cultured in a sabouraud dextrose agar medium containing 10 g of neopeptone, 20 g of glucose and 15 g of agar per liter, at 30° C. for 1-2 days. The yeast cells were suspended in sterile distilled water. Separately, Aspergillus fumigatus IFO8868 was cultured in a potato dextrose agar medium (manufactured by Nissui Pharmaceutical Co., Ltd.) at 30° C. until the conidia were formed abundantly. The formed conidia were suspended in a sterile physiological saline containing 0.1% of Tween 80. Each of the Candida albicans suspension and the Aspergillus fumigatus suspension was inoculated into a TC broth medium (containing 1.17 g of an yeast carbon base, 0.25 g of ammonium sulfate, 2.0 ml of a 50-fold concentrate of L-glutamic acid-containing MEM amino acid, 20 ml of a 0.5M phosphate buffer of pH 7.5 and 1.33 ml of 7.5% sodium hydrogencarbonate per 100 ml) containing a test compound, so that the final fungal amount became 10^4 spores/ml. Then, culture was conducted at 37° C. for 3 days. Thereafter, the growth of fungi was examined. The minimum concentration of test compound at which the growth of fungi had been inhibited, was taken as MIC (μg/ml).

[2] = system: Aspergillus fumigatus IFO8868; test: Therapeutic effect, oral, mice infected with Aspergillus fumigatus IFO8868 (4), Table 2d; format: in vivo; conditions: average survival days of Ketoconazole taken as 100; Aspergillus fumigatus 5.8×10^6 cells/mouse i.v.; 0.8 mg/mouse oral, 2 hours after infection and once daily for six consecutive days; 10 days observation; 10 mice
Procedure: (4) The therapeutic effects of the present compounds, when they were administered orally, were examined using mice infected with Aspergillus fumigatus IFO8868.
(§3) Aspergillus fumigatus IFO8868 was injected in a proportion of 5.8×10^6 cells/mouse to a group of 10 ICR strain male mice (weight: 19-21 g) intravenously at the tails, whereby the mice were infected with the fungi. […] The relative therapeutic index of the test compound was determined from the average survival days.
The results are shown in Table 2d, in which the relative therapeutic index of each test compound is a value calculated by taking the average survival days of Ketoconazole as 100.

Candida albicans ON28 [3] = test: Minimum inhibitory concentration (MIC) against Candida albicans ON28; format: cell-based; conditions: ON28, 72 h, TC broth medium, 10^4 spores/ml, 37° C., 3 days
Procedure: as §1, §2

[4] = Acute toxicity in mice, intravenous; format: in vivo; conditions: intravenous at the tail, ICR strain male mice, group of 5; 50% solution in polyethylene glycol 300
Procedure: Each of the compounds of Examples 10, 12, 19, 79, 142 and 146 was administered to a group of 5 ICR strain male mice (weight: 29-31 g) intravenously at the tails, and the acute toxicity of each compound was examined.
Each compound was administered in the form of a 50% solution in polyethylene glycol 300.

Candida albicans ON28 [5] = test: Therapeutic effect, oral, mice infected with Candida albicans ON28 (3), Table 2c; format: in vivo, ICR strain male mice infected with Candida albicans ON28; conditions: average survival days of Ketoconazole taken as 100; Candida albicans 5.7×10^6 cells/mouse i.v.; 0.1 mg/mouse oral, 2 hours after infection; 10 days observation; 10 mice
Procedure: (3) The therapeutic effects of the present compounds, when they were administered orally, were examined using mice infected with Candida albicans ON28.
as §3, with “Candida albicans ON28” for “Aspergillus fumigatus IFO8868”, “5.7×10^6” for “5.8×10^6”
The results are shown in Table 2c, in which the relative therapeutic index of each test compound is a value calculated by taking the average survival days Ketoconazole as 100.

Row | SMILES | MIC [1] [µg/mL] | MIC (Candida albicans ON28 [3]) [µg/mL] | Relative therapeutic index [2] | dose up to which no dead case occurred (acute toxicity) [4] [mg/kg] | Relative therapeutic index (Candida albicans ON28 [5])
1 | NC(=O)C(F)(F)C(O)(Cn1cncn1)c1ccc(F)cc1F (single isomer, unassigned) [Example 142] | 100 (≈ 314 µM) | 0.78 (≈ 2.45 µM) | 216 | ≥ 200 | 405
2 | CNC(=O)C(F)(F)C(O)(Cn1cncn1)c1ccc(F)cc1F (single isomer, unassigned) [Example 143] | 25 (≈ 75.2 µM) | 0.2 (≈ 0.602 µM) | 242 | – | 450
3 | CCNC(=O)C(F)(F)C(O)(Cn1cncn1)c1ccc(F)cc1F (single isomer, unassigned) [Example 144] | 6.25 (≈ 18 µM) | 0.1 (≈ 0.289 µM) | – | – | –
4 | O=C(NC1CC1)C(F)(F)C(O)(Cn1cncn1)c1ccc(F)cc1F (single isomer, unassigned) [Example 145] | 12.5 (≈ 34.9 µM) | 0.1 (≈ 0.279 µM) | 353 | – | 409
5 | NC(=O)C(F)(F)C(O)(Cn1cncn1)c1ccc(F)cc1Cl (single isomer, unassigned) [Example 146] | 50 (≈ 149 µM) | 0.39 (≈ 1.17 µM) | 500 | ≥ 200 | 418
6 | CC1(NC(=O)C(F)(F)C(O)(Cn2cncn2)c2ccc(F)cc2F)CC1 (stereo not shown) [Example 4] | 50 (≈ 134 µM) | 0.1 (≈ 0.269 µM) | – | – | –
7 | O=C(NC1CC1)C(F)(F)C(O)(Cn1cncn1)c1ccccc1F (stereo not shown) [Example 8, N-cyclopropyl-2,2-difluoro-3-(2-fluorophenyl)-3-hydroxy-4-(1H-1,2,4-triazol-1-yl)butanamide] | 25 (≈ 73.5 µM) | 0.78 (≈ 2.29 µM) | – | – | –
8 | NC(=O)C(F)(F)C(O)(Cn1cncn1)c1ccc(F)cc1F (stereo not shown) [Example 10, 3-(2,4-difluorophenyl)-2,2-difluoro-3-hydroxy-4-(1H-1,2,4-triazol-1-yl)butanamide] | – | – | 200 | ≥ 200 | 414
9 | CNC(=O)C(F)(F)C(O)(Cn1cncn1)c1ccc(F)cc1F (stereo not shown) [Example 11] | 100 (≈ 301 µM) | 0.2 (≈ 0.602 µM) | 174 | – | 423
10 | CCCNC(=O)C(F)(F)C(O)(Cn1cncn1)c1ccc(F)cc1F (stereo not shown) [Example 16] | 25 (≈ 69.4 µM) | ≤ 0.05 | – | – | –
11 | O=C(NC1CCCC1)C(F)(F)C(O)(Cn1cncn1)c1ccc(F)cc1F (stereo not shown) [Example 20] | 100 (≈ 259 µM) | ≤ 0.05 | – | – | –
12 | O=C(NC1CCCCC1)C(F)(F)C(O)(Cn1cncn1)c1ccc(F)cc1F (stereo not shown) [Example 21] | 100 (≈ 250 µM) | ≤ 0.05 | – | – | –
13 | CC(C)NC(=O)C(F)(F)C(O)(Cn1cncn1)c1ccc(F)cc1F (stereo not shown) [Example 33] | 50 (≈ 139 µM) | 0.2 (≈ 0.555 µM) | – | – | –
14 | CC(C)CNC(=O)C(F)(F)C(O)(Cn1cncn1)c1ccc(F)cc1F (stereo not shown) [Example 35] | 25 (≈ 66.8 µM) | ≤ 0.05 | – | – | –
15 | CC1CN(C(=O)C(F)(F)C(O)(Cn2cncn2)c2ccc(F)cc2F)CC(C)O1 (stereo not shown) [Example 39, 4-[3-(2,4-difluorophenyl)-2,2-difluoro-3-hydroxy-4-(1H-1,2,4-triazol-1-yl)butanoyl]-2,6-dimethylmorpholine] | 100 (≈ 240 µM) | 6.25 (≈ 15 µM) | – | – | –
16 | O=C(Nc1ccc(Cl)cc1)C(F)(F)C(O)(Cn1cncn1)c1ccc(F)cc1F (stereo not shown) [Example 42, N-(4-chlorophenyl)-3-(2,4-difluorophenyl)-2,2-difluoro-3-hydroxy-4-(1H-1,2,4-triazol-1-yl)butanamide] | 50 (≈ 117 µM) | ≤ 0.05 | – | – | –
17 | Cc1ccc(NC(=O)C(F)(F)C(O)(Cn2cncn2)c2ccc(F)cc2F)cc1 (stereo not shown) [Example 43] | 25 (≈ 61.2 µM) | ≤ 0.05 | – | – | –
18 | COc1ccccc1NC(=O)C(F)(F)C(O)(Cn1cncn1)c1ccc(F)cc1F (stereo not shown) [Example 45] | 50 (≈ 118 µM) | ≤ 0.05 | – | – | –
19 | NC(=O)C(F)(Cc1ccccc1)C(O)(Cn1cncn1)c1ccc(F)cc1F (stereo not shown) [Example 56] | 100 (≈ 256 µM) | 0.39 (≈ 0.999 µM) | – | – | –
20 | CCNC(=O)C(F)(F)C(O)(Cn1cncn1)c1ccccc1 (stereo not shown) [Example 69] | 50 (≈ 161 µM) | 0.39 (≈ 1.26 µM) | – | – | –
21 | CNC(=O)C(F)(F)C(O)(Cn1cncn1)c1ccccc1F (stereo not shown) [Example 72] | 50 (≈ 159 µM) | 0.39 (≈ 1.24 µM) | – | – | –
22 | CCNC(=O)C(F)(F)C(O)(Cn1cncn1)c1ccccc1F (stereo not shown) [Example 73] | 25 (≈ 76.2 µM) | 0.39 (≈ 1.19 µM) | – | – | –
23 | NC(=O)C(F)(F)C(O)(Cn1cncn1)c1ccc(F)cc1Cl (stereo not shown) [Example 79] | 50 (≈ 149 µM) | 0.78 (≈ 2.33 µM) | 400 | ≥ 200 | 405
24 | CCNC(=O)C(F)(F)C(O)(Cn1cncn1)c1ccc(Cl)cc1F (stereo not shown) [Example 83] | 25 (≈ 68.9 µM) | 0.1 (≈ 0.276 µM) | – | – | –
25 | CCNC(=O)C(F)(F)C(O)(Cn1cncn1)c1cc(F)c(F)cc1F (stereo not shown) [Example 88] | 50 (≈ 137 µM) | 0.2 (≈ 0.549 µM) | – | – | –
26 | CCNC(=O)C(F)(F)C(O)(Cn1cncn1)c1cc(F)ccc1F (stereo not shown) [Example 117] | 25 (≈ 72.2 µM) | 0.39 (≈ 1.13 µM) | – | – | –
27 | COc1ccc(NC(=O)C(F)(F)C(O)(Cn2cncn2)c2ccc(F)cc2F)cc1 (stereo not shown) [Example 139] | 12.5 (≈ 29.5 µM) | 0.05 (≈ 0.118 µM) | – | – | –

The remaining compounds from weak to strong by MIC [1], led by results:

Row | MIC [1] [µg/mL] | MIC (Candida albicans ON28 [3]) [µg/mL] | SMILES | Relative therapeutic index [2] | dose up to which no dead case occurred (acute toxicity) [4] [mg/kg] | Relative therapeutic index (Candida albicans ON28 [5])
28 | 12.5 (≈ 35 µM) | 0.39 (≈ 1.09 µM) | O=C(NC1CC1)C(F)(F)C(O)(Cn1cncn1)c1ccccc1Cl (stereo not shown) [Example 3] | – | – | –
29 | 12.5 (≈ 26.7 µM) | ≤ 0.05 | O=C(NC1(c2ccc(Cl)cc2)CC1)C(F)(F)C(O)(Cn1cncn1)c1ccc(F)cc1F (stereo not shown) [Example 5] | – | – | –
30 | 12.5 (≈ 34.9 µM) | 0.1 (≈ 0.279 µM) | C=CCNC(=O)C(F)(F)C(O)(Cn1cncn1)c1ccc(F)cc1F (stereo not shown) [Example 17] | – | – | –
31 | 12.5 (≈ 28.2 µM) | ≤ 0.05 | O=C(NCc1ccc(Cl)cc1)C(F)(F)C(O)(Cn1cncn1)c1ccc(F)cc1F (stereo not shown) [Example 22] | – | – | –
32 | 12.5 (≈ 33.4 µM) | 0.1 (≈ 0.267 µM) | CC(C)(C)NC(=O)C(F)(F)C(O)(Cn1cncn1)c1ccc(F)cc1F (stereo not shown) [Example 51] | – | – | –
33 | 12.5 (≈ 37.8 µM) | 0.78 (≈ 2.36 µM) | CNC(=O)C(F)(F)C(O)(Cn1cncn1)c1ccccc1Cl (stereo not shown) [Example 74] | – | – | –
34 | 12.5 (≈ 35.8 µM) | 0.39 (≈ 1.12 µM) | CNC(=O)C(F)(F)C(O)(Cn1cncn1)c1ccc(F)cc1Cl (stereo not shown) [Example 80] | 416 | – | 455
35 | 12.5 (≈ 32 µM) | 0.1 (≈ 0.256 µM) | O=C(NC1CC1)C(F)(F)C(O)(Cn1cncn1)c1ccc(Cl)cc1Cl (stereo not shown) [Example 85] | – | – | –
36 | 12.5 (≈ 33.4 µM) | 0.05 (≈ 0.134 µM) | CCCCNC(=O)C(F)(F)C(O)(Cn1cncn1)c1ccc(F)cc1F (stereo not shown) [Example 114] | – | – | –
37 | 12.5 (≈ 27 µM) | 0.025 (≈ 0.0541 µM) | O=C(Nc1ccc(C(F)(F)F)cc1)C(F)(F)C(O)(Cn1cncn1)c1ccc(F)cc1F (stereo not shown) [Example 136] | – | – | –
38 | 12.5 (≈ 28.8 µM) | 0.1 (≈ 0.231 µM) | N#CCc1ccc(NC(=O)C(F)(F)C(O)(Cn2cncn2)c2ccc(F)cc2F)cc1 (stereo not shown) [Example 138] | – | – | –
39 | 6.25 (≈ 17.9 µM) | 0.1 (≈ 0.287 µM) | CNC(=O)C(F)(F)C(O)(Cn1cncn1)c1ccc(F)cc1Cl (single isomer, unassigned) [Example 147] | 526 | – | 414
40 | 6.25 (≈ 18.1 µM) | 0.2 (≈ 0.58 µM) | CCNC(=O)C(F)(F)C(O)(Cn1cncn1)c1ccccc1Cl (stereo not shown) [Example 75] | – | – | –
41 | 3.13 (≈ 8.35 µM) | 0.1 (≈ 0.267 µM) | O=C(NC1CC1)C(F)(F)C(O)(Cn1cncn1)c1ccc(F)cc1Cl (single isomer, unassigned) [Example 148] | – | – | –
42 | 3.13 (≈ 8.63 µM) | 0.1 (≈ 0.276 µM) | CCNC(=O)C(F)(F)C(O)(Cn1cncn1)c1ccc(F)cc1Cl (stereo not shown) [Example 81] | – | – | –
43 | 1.56 (≈ 3.69 µM) | ≤ 0.05 | Cc1ccc(NC(=O)C(F)(F)C(O)(Cn2cncn2)c2ccc(F)cc2F)c(C)c1 (stereo not shown) [Example 44] | – | – | –
